# Reference: patent US20240043404A1 (AbbVie Inc., priority 2009, published 2024)
# Like-named read-outs stand apart in the source and are kept apart here.
# Tested on: RS4;11 cells
# Experiment: RS4;11 cell viability assay (CellTiter Glo);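 also: acute lymphoblastic leukemia line RS4,11, EC50 derived from percentage of viable cells after treatment relative to untreated controls, cell killing taken as a measure of Bcl-2 inhibition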
# Assay type: cell-based, human
# Conditions: read-out: RS4
# [1] = Homo sapiens, RS4-11, 48 h, 50,000 cells per well, 10% human serum, 48 hours, 11 EC50 Values
# [2] = Homo sapiens, RS4-11, Table 5, direct comparison Z=N with corresponding analogs Z=C, 11 EC50
# [3] = 50,000 cells per well, 10% human serum, 48 hours, 11 EC50 Values
# Experimental: The acute lymphoblastic leukemia (ALL) cell line RS4;11 was used as the primary human cell line to assess the cellular activity of Bcl-2 selective agents in vitro and their efficacy in vivo.
# Cell cytotoxicity EC50 values were assessed using CellTiter Glo (Promega) according to the manufacturer's recommendations. The EC50 values were determined as a percentage of viable cells following treatment compared to the untreated control cells.
EC50 [1],EC50 [2],EC50 [3],SMILES
23.7 nM,,,"O=C(NS(=O)(=O)c1ccc(OCC2(F)CCOCC2)c([N+](=O)[O-])c1)c1ccc(N2CCN(CC3=C(c4ccc(Cl)cc4)CCC4(CCCC4)C3)CC2)cc1Oc1cnc2[nH]ccc2c1 [Example 73, 4-(4-{[8-(4-chlorophenyl)spiro[4.5]dec-7-en-7-yl]methyl}piperazin-1-yl)-N-({4-[(4-fluorotetrahydro-2H-pyran-4-yl)methoxy]-3-nitrophenyl}sulfonyl)-2-(1H-pyrrolo[2,3-b]pyridin-5-yloxy)benzamide]"
> 1000 nM,,,"CC1(C)CCC(CN2CCN(c3ccc(C(=O)NS(=O)(=O)c4ccc(OCC5(F)CCOCC5)c(S(=O)(=O)C(F)(F)F)c4)c(Oc4cnc5[nH]ccc5c4)c3)CC2)=C(c2ccc(Cl)cc2)C1 [Example 220, 4-(4-{[2-(4-chlorophenyl)-4,4-dimethylcyclohex-1-en-1-yl]methyl}piperazin-1-yl)-N-({4-[(4-fluorotetrahydro-2H-pyran-4-yl)methoxy]-3-[(trifluoromethyl)sulfonyl]phenyl}sulfonyl)-2-(1H-pyrrolo[2,3-b]pyridin-5-yloxy)benzamide]"
926 nM,,,"CC1(C)CCC(CN2CCN(c3ccc(C(=O)NS(=O)(=O)c4ccc(OCC5CN(C6CC6)CCO5)c(Cl)c4)c(Oc4cnc5[nH]ccc5c4)c3)CC2)=C(c2ccc(Cl)cc2)C1 (centres unmarked) [Example 331, N-({3-chloro-4-[(4-cyclopropylmorpholin-2-yl)methoxy]phenyl}sulfonyl)-4-(4-{[2-(4-chlorophenyl)-4,4-dimethylcyclohex-1-en-1-yl]methyl}piperazin-1-yl)-2-(1H-pyrrolo[2,3-b]pyridin-5-yloxy)benzamide]"
> 1000 nM,,,"CC1(C)CCC(CN2CCN(c3ccc(C(=O)NS(=O)(=O)c4cnc(OCC(C)(CO)CO)c(Cl)c4)c(Oc4cnc5[nH]ccc5c4)c3)CC2)=C(c2ccc(Cl)cc2)C1 [Example 250, N-({5-chloro-6-[3-hydroxy-2-(hydroxymethyl)-2-methylpropoxy]pyridin-3-yl}sulfonyl)-4-(4-{[2-(4-chlorophenyl)-4,4-dimethylcyclohex-1-en-1-yl]methyl}piperazin-1-yl)-2-(1H-pyrrolo[2,3-b]pyridin-5-yloxy)benzamide]"
299 nM,,,"CC1(C)CCCC(c2ccc(Cl)cc2)=C1CN1CCN(c2ccc(C(=O)NS(=O)(=O)c3ccc(NCC4CCOCC4)c([N+](=O)[O-])c3)c(Oc3cnc4[nH]ccc4c3)c2)CC1 [Example 101, 4-(4-{[2-(4-chlorophenyl)-6,6-dimethylcyclohex-1-en-1-yl]methyl}piperazin-1-yl)-N-({3-nitro-4-[(tetrahydro-2H-pyran-4-ylmethyl)amino]phenyl}sulfonyl)-2-(1H-pyrrolo[2,3-b]pyridin-5-yloxy)benzamide]"
0.538 nM,,,"CC1(C)CCC(CN2CCN(c3ccc(C(=O)NS(=O)(=O)c4ccc(NC[C@H]5CN(C6COC6)CCO5)c([N+](=O)[O-])c4)c(Oc4cnc5[nH]ccc5c4)c3)CC2)=C(c2ccc(Cl)cc2)C1 [Example 361, 4-(4-{[2-(4-chlorophenyl)-4,4-dimethylcyclohex-1-en-1-yl]methyl}piperazin-1-yl)-N-{[3-nitro-4-({[(2S)-4-(oxetan-3-yl)morpholin-2-yl]methyl}amino)phenyl]sulfonyl}-2-(1H-pyrrolo[2,3-b]pyridin-5-yloxy)benzamide]"
23.1 nM,,,"CC1(C)CCC(CN2CCN(c3ccc(C(=O)NS(=O)(=O)c4ccc(OCC5CCOC(C)(C)C5)c([N+](=O)[O-])c4)c(Oc4cnc5[nH]ccc5c4)c3)CC2)=C(c2ccc(Cl)cc2)C1 (centres unmarked) [Example 51, 4-(4-{[2-(4-chlorophenyl)-4,4-dimethylcyclohex-1-en-1-yl]methyl}piperazin-1-yl)-N-({4-[(2,2-dimethyltetrahydro-2H-pyran-4-yl)methoxy]-3-nitrophenyl}sulfonyl)-2-(1H-pyrrolo[2,3-b]pyridin-5-yloxy)benzamide]"
1210 nM,1210 nM,,"COCCNc1ccc(S(=O)(=O)NC(=O)c2ccc(N3CCN(CC4=C(c5ccc(Cl)cc5)CC(C)(C)CC4)CC3)cc2Oc2cnc3[nH]ccc3c2)cc1S(=O)(=O)C(F)(F)F [Example 16, 4-(4-{[2-(4-chlorophenyl)-4,4-dimethylcyclohex-1-en-1-yl]methyl}piperazin-1-yl)-N-({4-[(2-methoxyethyl)amino]-3-[(trifluoromethyl)sulfonyl]phenyl}sulfonyl)-2-(1H-pyrrolo[2,3-b]pyridin-5-yloxy)benzamide]"
13.9 nM,,,"CC1(C)CCC(CN2CCN(c3ccc(C(=O)NS(=O)(=O)c4ccc(N[C@@H]5CCN(C6COC6)C5)c([N+](=O)[O-])c4)c(Oc4cnc5[nH]ccc5c4)c3)CC2)=C(c2ccc(Cl)cc2)C1 [Example 224, 4-(4-{[2-(4-chlorophenyl)-4,4-dimethylcyclohex-1-en-1-yl]methyl}piperazin-1-yl)-N-[(3-nitro-4-{[(3R)-1-(oxetan-3-yl)pyrrolidin-3-yl]amino}phenyl)sulfonyl]-2-(1H-pyrrolo[2,3-b]pyridin-5-yloxy)benzamide]"
214 nM,,,"CC1(C)CCC(CN2CCN(c3ccc(C(=O)NS(=O)(=O)c4cnc(O[C@@H]5CCN(C(CF)CF)C5)c(Cl)c4)c(Oc4cnc5[nH]ccc5c4)c3)CC2)=C(c2ccc(Cl)cc2)C1 [Example 274, N-[(5-chloro-6-{[(3R)-1-(1,3-difluoropropan-2-yl)pyrrolidin-3-yl]oxy}pyridin-3-yl)sulfonyl]-4-(4-{[2-(4-chlorophenyl)-4,4-dimethylcyclohex-1-en-1-yl]methyl}piperazin-1-yl)-2-(1H-pyrrolo[2,3-b]pyridin-5-yloxy)benzamide]"
34.6 nM,,,"CC1(C)CCC(CN2CCN(c3ccc(C(=O)NS(=O)(=O)c4ccc(NCC5CN(C(CF)CF)C5)c([N+](=O)[O-])c4)c(Oc4cnc5[nH]ccc5c4)c3)CC2)=C(c2ccc(Cl)cc2)C1 [Example 161, 4-(4-{[2-(4-chlorophenyl)-4,4-dimethylcyclohex-1-en-1-yl]methyl}piperazin-1-yl)-N-({4-[({1-[2-fluoro-1-(fluoromethyl)ethyl]azetidin-3-yl}methyl)amino]-3-nitrophenyl}sulfonyl)-2-(1H-pyrrolo[2,3-b]pyridin-5-yloxy)benzamide]"
14.2 nM,14.2 nM,,"CC1(C)CCC(CN2CCN(c3ccc(C(=O)NS(=O)(=O)c4ccc(NC5CCN(C6CCOCC6)CC5)c([N+](=O)[O-])c4)c(Oc4cnc5[nH]ccc5c4)c3)CC2)=C(c2ccc(Cl)cc2)C1 [Example 3, 4-(4-{[2-(4-chlorophenyl)-4,4-dimethylcyclohex-1-en-1-yl]methyl}piperazin-1-yl)-N-({3-nitro-4-[(1-tetrahydro-2H-pyran-4-ylpiperidin-4-yl)amino]phenyl}sulfonyl)-2-(1H-pyrrolo[2,3-b]pyridin-5-yloxy)benzamide]"
,,11 nM,"CC1(C)CCC(CN2CCN(c3ccc(C(=O)NS(=O)(=O)c4ccc(NCC56CC7CC(C5)C(O)C(C7)C6)c([N+](=O)[O-])c4)c(Oc4cnc5[nH]ccc5c4)c3)CC2)=C(c2ccc(Cl)cc2)C1 (centres unmarked) [Example 200, 4-(4-{[2-(4-chlorophenyl)-4,4-dimethylcyclohex-1-en-1-yl]methyl}piperazin-1-yl)-N-{[4-({[(Z)-4-hydroxy-1-adamantyl]methyl}amino)-3-nitrophenyl]sulfonyl}-2-(1H-pyrrolo[2,3-b]pyridin-5-yloxy)benzamide]"
7.23 nM,,,"CN1CCC(F)(COc2ncc(S(=O)(=O)NC(=O)c3ccc(N4CCN(CC5=C(c6ccc(Cl)cc6)CC(C)(C)CC5)CC4)cc3Oc3cnc4[nH]ccc4c3)cc2Cl)CC1 [Example 269, N-({5-chloro-6-[(4-fluoro-1-methylpiperidin-4-yl)methoxy]pyridin-3-yl}sulfonyl)-4-(4-{[2-(4-chlorophenyl)-4,4-dimethylcyclohex-1-en-1-yl]methyl}piperazin-1-yl)-2-(1H-pyrrolo[2,3-b]pyridin-5-yloxy)benzamide]"
56.5 nM,,,"CC1(C)CCC(CN2CCN(c3ccc(C(=O)NS(=O)(=O)c4ccc(NC5CCC(N(CCC#N)C6CC6)CC5)c([N+](=O)[O-])c4)c(Oc4cnc5[nH]ccc5c4)c3)CC2)=C(c2ccc(Cl)cc2)C1 (centres unmarked) [Example 340, 4-(4-{[2-(4-chlorophenyl)-4,4-dimethylcyclohex-1-en-1-yl]methyl}piperazin-1-yl)-N-{[4-({4-[(2-cyanoethyl)(cyclopropyl)amino]cyclohexyl}amino)-3-nitrophenyl]sulfonyl}-2-(1H-pyrrolo[2,3-b]pyridin-5-yloxy)benzamide]"
159 nM,,,"CC1(C)CCC(CN2CCN(c3ccc(C(=O)NS(=O)(=O)c4ccc(NCc5ccc(OC(F)F)cc5)c([N+](=O)[O-])c4)c(Oc4cnc5[nH]ccc5c4)c3)CC2)=C(c2ccc(Cl)cc2)C1 [Example 177, 4-(4-{[2-(4-chlorophenyl)-4,4-dimethylcyclohex-1-en-1-yl]methyl}piperazin-1-yl)-N-[(4-{[4-(difluoromethoxy)benzyl]amino}-3-nitrophenyl)sulfonyl]-2-(1H-pyrrolo[2,3-b]pyridin-5-yloxy)benzamide]"
,,3.4 nM,"CC1(C)CCC(CN2CCN(c3ccc(C(=O)NS(=O)(=O)c4ccc(NC[C@H]5CC[C@](C)(O)CC5)c([N+](=O)[O-])c4)c(Oc4cnc5[nH]ccc5c4)c3)CC2)=C(c2ccc(Cl)cc2)C1 [Example 338, 4-(4-{[2-(4-chlorophenyl)-4,4-dimethylcyclohex-1-en-1-yl]methyl}piperazin-1-yl)-N-[(4-{[(cis-4-hydroxy-4-methylcyclohexyl)methyl]amino}-3-nitrophenyl)sulfonyl]-2-(1H-pyrrolo[2,3-b]pyridin-5-yloxy)benzamide]"
560 nM,,,"CC1(C)CCC(CN2CCN(c3ccc(C(=O)NS(=O)(=O)c4ccc(N[C@@H]5CCN(C(CF)CF)C5)c(S(=O)(=O)C(F)(F)F)c4)c(Oc4cnc5[nH]ccc5c4)c3)CC2)=C(c2ccc(Cl)cc2)C1 [Example 225, 4-(4-{[2-(4-chlorophenyl)-4,4-dimethylcyclohex-1-en-1-yl]methyl}piperazin-1-yl)-N-[(4-{[(3R)-1-(1,3-difluoropropan-2-yl)pyrrolidin-3-yl]amino}-3-[(trifluoromethyl)sulfonyl]phenyl)sulfonyl]-2-(1H-pyrrolo[2,3-b]pyridin-5-yloxy)benzamide]"
